For the assay, the target named is T1, mouse CXCR3 (Mus musculus, UniProt O88410).
T1 sequence (O88410 1-367): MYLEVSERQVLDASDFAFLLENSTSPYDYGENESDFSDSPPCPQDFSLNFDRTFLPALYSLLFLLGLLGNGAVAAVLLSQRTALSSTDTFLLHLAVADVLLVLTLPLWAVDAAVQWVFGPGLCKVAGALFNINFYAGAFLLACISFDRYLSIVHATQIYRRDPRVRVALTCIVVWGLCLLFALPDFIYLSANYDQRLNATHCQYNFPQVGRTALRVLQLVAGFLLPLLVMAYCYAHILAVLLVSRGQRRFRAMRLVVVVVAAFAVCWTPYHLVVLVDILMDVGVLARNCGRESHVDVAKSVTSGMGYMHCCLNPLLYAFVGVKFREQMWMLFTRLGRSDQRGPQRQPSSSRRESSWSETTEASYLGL
The assay is described as follows: […]-CXCL10 radioligand displacement on HEK […] cells transfected with mouse CXCR3. Format: cell-based.

In the case of AMG1237845, the half-inhibitory concentration (IC50) stood at 53 ± 7 nM.

The record behind these values is publication PMC2738925 (Transplantation, 2009).
